Reference: publication PMC5895059, “Scaffold hopping from (5-hydroxymethyl) isophthalates to multisubstituted pyrimidines diminishes binding affinity to the C1 domain of protein kinase C” (PLoS ONE, 2018)
“And” between values parts separate entries of the source, which are not always exact repeats. Equal entries are not always repeated.

Target: PKCα (Homo sapiens, UniProt P17252)
Experiment: [3H]PDBu displacement, 96-well plate filtration binding assay
Conditions: for Displacement assay raw data (CCPM): single replicate wells; for Residual [^3H]PDBu binding to PKCα (% of control): 20 μM compound concentration, mean + SEM, n = 2–8

| Residual [^3H]PDBu binding to PKCα (% of control) | Displacement of [^3H]PDBu from PKCα (in words) (concentration range of 0.2–30 μM) | SMILES | Displacement assay raw data (CCPM) (0,2 µM test substance) | Displacement assay raw data (CCPM) (1 µM test substance) | Displacement assay raw data (CCPM) (4 µM test substance) | Displacement assay raw data (CCPM) (10 µM test substance) | Displacement assay raw data (CCPM) (20 µM test substance) | Displacement assay raw data (CCPM) (30 µM test substance) |
| --- | --- | --- | --- | --- | --- | --- | --- | --- |
| 94.1 ± 2.4 % of control |  | CCCCCCCOC(=O)c1cc(C(=O)OCCCCCCC)nc(CO)n1 [Compound 1a, Diheptyl 2-(hydroxymethyl)pyrimidine-4,6-dicarboxylate] | 5564 CCPM and 8472 CCPM and 8055 CCPM and 9131 CCPM and 5172 CCPM and 4908 CCPM | 5111 CCPM and 8836 CCPM and 8480 CCPM and 8743 CCPM and 5670 CCPM and 5038 CCPM | 5090 CCPM and 8165 CCPM and 8077 CCPM and 7980 CCPM and 5413 CCPM and 5275 CCPM | 5789 CCPM and 8577 CCPM and 7653 CCPM and 8759 CCPM and 5036 CCPM and 5595 CCPM | 4889 CCPM and 7960 CCPM and 7787 CCPM and 7605 CCPM and 5228 CCPM and 4729 CCPM | 4835 CCPM and 7857 CCPM and 7587 CCPM and 5013 CCPM and 5317 CCPM |
| 104.8 ± 5.3 % of control |  | CCCCCCCCOC(=O)c1cc(C(=O)OCCCCCCCC)nc(CO)n1 [Compound 1b, Dioctyl 2-(hydroxymethyl)pyrimidine-4,6-dicarboxylate] | 7480 CCPM and 1215 CCPM and 1126 CCPM and 1107 CCPM and 7956 CCPM and 7520 CCPM | 7638 CCPM and 1213 CCPM and 1392 CCPM and 1115 CCPM and 7562 CCPM and 7593 CCPM | 7531 CCPM and 1201 CCPM and 1408 CCPM and 1101 CCPM and 7673 CCPM and 7303 CCPM | 7793 CCPM and 1222 CCPM and 1214 CCPM and 1251 CCPM and 7474 CCPM and 6957 CCPM | 8435 CCPM and 1194 CCPM and 1172 CCPM and 1054 CCPM and 8891 CCPM and 9450 CCPM | 6677 CCPM and 1407 CCPM and 1081 CCPM and 1070 CCPM and 6691 CCPM and 6936 CCPM |
| 103.7 ± 5.3 % of control |  | CCCCCCCCCCCOC(=O)c1cc(C(=O)OCCCCCCCCCCC)nc(CO)n1 [Compound 1c, Diundecyl 2-(hydroxymethyl)pyrimidine-4,6-dicarboxylate] | 8135 CCPM and 9009 CCPM and 9090 CCPM | 7374 CCPM and 8410 CCPM and 8950 CCPM | 8779 CCPM and 7927 CCPM and 8172 CCPM | 7968 CCPM and 8364 CCPM and 8092 CCPM | 7670 CCPM and 9322 CCPM and 8225 CCPM | 7089 CCPM and 8399 CCPM and 9539 CCPM |
| 98.2 ± 1.6 % of control |  | CCCCC(CC)OC(=O)c1cc(C(=O)OCC)nc(CO)n1 (stereo not drawn) [Compound 1d, 4-ethyl 6-(heptan-3-yl) 2-(hydroxymethyl)pyrimidine-4,6-dicarboxylate] | 5785 CCPM and 11839 CCPM and 10949 CCPM and 11567 CCPM and 6093 CCPM and 6313 CCPM | 5593 CCPM and 11705 CCPM and 12203 CCPM and 11600 CCPM and 5961 CCPM | 5222 CCPM and 11573 CCPM and 11709 CCPM and 11091 CCPM and 5210 CCPM and 6475 CCPM | 5570 CCPM and 12001 CCPM and 12205 CCPM and 11408 CCPM and 5899 CCPM and 5461 CCPM | 5518 CCPM and 11664 CCPM and 11365 CCPM and 11482 CCPM and 5575 CCPM and 5277 CCPM | 5500 CCPM and 12337 CCPM and 11581 CCPM and 11144 CCPM and 5029 CCPM and 5100 CCPM |
| 86.7 ± 7.7 % of control |  | CCCCC(CC)OC(=O)c1cc(C(=O)OC(CC)CCCC)nc(CO)n1 (stereo not drawn) [Compound 1e, Di(heptan-3-yl) 2-(hydroxymethyl)pyrimidine-4,6-dicarboxylate] | 5837 CCPM and 9796 CCPM and 9740 CCPM and 9577 CCPM and 6148 CCPM and 6500 CCPM | 5874 CCPM and 9629 CCPM and 9242 CCPM and 9347 CCPM and 6081 CCPM and 6166 CCPM | 6376 CCPM and 9023 CCPM and 9333 CCPM and 9667 CCPM and 6505 CCPM and 6158 CCPM | 5476 CCPM and 8845 CCPM and 9519 CCPM and 8799 CCPM and 5785 CCPM and 5946 CCPM | 5873 CCPM and 9742 CCPM and 7884 CCPM and 7727 CCPM and 6291 CCPM and 6049 CCPM | 5476 CCPM and 8529 CCPM and 8458 CCPM and 9304 CCPM and 5635 CCPM and 5882 CCPM |
| 88.3 ± 2.7 % of control |  | CCCCCC(CC)OC(=O)c1cc(C(=O)OC(CC)CCCCC)nc(CO)n1 (stereo not drawn) [Compound 1f, Di(octan-3-yl) 2-(hydroxymethyl)pyrimidine-4,6-dicarboxylate] | 8395 CCPM and 7761 CCPM and 8223 CCPM | 8430 CCPM and 8004 CCPM and 8035 CCPM | 8187 CCPM and 8110 CCPM and 8243 CCPM | 6268 CCPM and 7306 CCPM and 7650 CCPM | 7244 CCPM and 7065 CCPM and 7340 CCPM | 7174 CCPM and 7070 CCPM and 7370 CCPM |
| 111.8 ± 6.5 % of control | could not displace | O=C(OCc1cccc(C(F)(F)F)c1)c1cc(C(=O)OCc2cccc(C(F)(F)F)c2)nc(CO)n1 [Compound 1g, Bis[3-(trifluoromethyl)benzyl] 2-(hydroxymethyl)pyrimidine-4,6-dicarboxylate] | 5983 CCPM and 11409 CCPM and 12180 CCPM and 12791 CCPM and 7834 CCPM and 6792 CCPM | 5197 CCPM and 12142 CCPM and 12212 CCPM and 11135 CCPM and 5159 CCPM and 5208 CCPM | 7023 CCPM and 11774 CCPM and 11597 CCPM and 12149 CCPM and 8091 CCPM and 7399 CCPM | 6399 CCPM and 11639 CCPM and 11927 CCPM and 11310 CCPM and 6008 CCPM and 6638 CCPM | 7300 CCPM and 11874 CCPM and 12244 CCPM and 12079 CCPM and 8018 CCPM and 7727 CCPM | 6005 CCPM and 11016 CCPM and 11803 CCPM and 12038 CCPM and 5730 CCPM and 6258 CCPM |
| 116.3 ± 5.9 % of control |  | CCOC(=O)c1cc(C(=O)OCC)nc(CO)n1 [Compound 1h, Diethyl 2-(hydroxymethyl)pyrimidine-4,6-dicarboxylate] | 6323 CCPM and 10230 CCPM and 10470 CCPM and 11100 CCPM and 5792 CCPM and 6513 CCPM | 5802 CCPM and 9840 CCPM and 9837 CCPM and 10294 CCPM and 5441 CCPM and 6766 CCPM | 5407 CCPM and 9299 CCPM and 9482 CCPM and 9928 CCPM and 5323 CCPM and 5809 CCPM | 6198 CCPM and 9686 CCPM and 9902 CCPM and 9890 CCPM and 6355 CCPM and 6092 CCPM | 6120 CCPM and 9294 CCPM and 10766 CCPM and 9965 CCPM and 5572 CCPM and 5876 CCPM | 5421 CCPM and 9318 CCPM and 10014 CCPM and 8246 CCPM and 4984 CCPM and 6346 CCPM |
